Data published in article PMC5306220 (European Journal of Clinical Pharmacology, 2016).

Tests used:
[1] = Population PK/PD model fitted to study data: PK parameter estimates; format: in vivo, human; settings: PK/PD model typical value
From the text: To bridge the adult and pediatric PK, the PK model included weight as an initial covariate on clearance and volume of distribution parameters, as shown in the following equation: Pi=Ppop⋅WTi/WTreference^b⋅e^ηi

[2] = test system: blood pressure; settings: patients with T2DM; cited from earlier work
[3] = Safety: treatment-emergent adverse events, laboratory tests, vital signs, ECG;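 note: dosing after fasting overnight (8 h minimum), clinic stay to day 2, outpatient visits on days 3 and 4, and a telephone check for adverse events about 14 days after study exit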
[4] = Plasma and urine pharmacokinetics of alogliptin after a single oral dose (LC-MS/MS, noncompartmental)
[5] = 12.5 mg single dose, Group 1 10 to <14 years, N = 5
[6] = 12.5 mg single dose, Group 2 14 to <18 years, N = 8
[7] = 25 mg single dose, Group 1 10 to <14 years, N = 4
[8] = 25 mg single dose, Group 2 14 to <18 years, N = 7
[9] = 25 mg single dose, Group 3 Adults, N = 22
[10] = entire study period, all 46 subjects
[11] = pediatric subjects, 12.5-mg dose vs adults 25 mg

Cn1c(=O)cc(N2CCC[C@@H](N)C2)n(Cc2ccccc2C#N)c1=O [alogliptin]
Absorption rate constant [KA] in adult subjects ([1]; adult subjects): 1.66 h⁻¹
Oral clearance [CL/F] in adult subjects ([1]; adult subjects, reference body weight 70 kg): 13.0 L/h
Absorption rate constant [KA] in pediatric subjects ([1]; pediatric subjects): 0.590 h⁻¹
Oral clearance [CL/F] in pediatric subjects ([1]; pediatric subjects, reference body weight 70 kg): 14.4 L/h
Vd/F ([1]; human, plasma, oral, read-out: Central volume of distribution [V2/F]): 125 L
effect on blood pressure [2]: lower blood pressure
Mild TEAEs: Subjects, N (%) [3, 5]: 3 (60.0)
Moderate TEAEs: Subjects, N (%) [3, 5]: 0
Not related TEAEs: Subjects, N (%) [3, 5]: 1 (20.0)
Related TEAEs: Subjects, N (%) [3, 5]: 2 (40.0)
Severe TEAEs: Subjects, N (%) [3, 5]: 0
TEAEs: Subjects, N (%) [3, 5]: 3 (60.0)
Mild TEAEs: Subjects, N (%) [3, 6]: 5 (62.5)
Moderate TEAEs: Subjects, N (%) [3, 6]: 0
Not related TEAEs: Subjects, N (%) [3, 6]: 3 (37.5)
Related TEAEs: Subjects, N (%) [3, 6]: 2 (25.0)
Severe TEAEs: Subjects, N (%) [3, 6]: 0
TEAEs: Subjects, N (%) [3, 6]: 5 (62.5)
Mild TEAEs: Subjects, N (%) [3, 7]: 1 (25.0)
Moderate TEAEs: Subjects, N (%) [3, 7]: 0
Not related TEAEs: Subjects, N (%) [3, 7]: 1 (25.0)
Related TEAEs: Subjects, N (%) [3, 7]: 0
Severe TEAEs: Subjects, N (%) [3, 7]: 0
TEAEs: Subjects, N (%) [3, 7]: 1 (25.0)
Mild TEAEs: Subjects, N (%) [3, 8]: 2 (28.6)
Moderate TEAEs: Subjects, N (%) [3, 8]: 0
Not related TEAEs: Subjects, N (%) [3, 8]: 2 (28.6)
Related TEAEs: Subjects, N (%) [3, 8]: 0
Severe TEAEs: Subjects, N (%) [3, 8]: 0
TEAEs: Subjects, N (%) [3, 8]: 2 (28.6)
Mild TEAEs: Subjects, N (%) [3, 9]: 7 (31.8)
Moderate TEAEs: Subjects, N (%) [3, 9]: 1 (4.5)
Not related TEAEs: Subjects, N (%) [3, 9]: 4 (18.2)
Related TEAEs: Subjects, N (%) [3, 9]: 5 (22.7)
Severe TEAEs: Subjects, N (%) [3, 9]: 1 (4.5)
TEAEs: Subjects, N (%) [3, 9]: 9 (40.9)
AEs leading to study drug discontinuation ([3]; entire study): No AEs led to study drug discontinuation
abnormal ECG results reported as TEAE ([3]; entire study): No abnormal ECG result was reported as a TEAE
deaths ([3]; entire study): no deaths occurred
number of TEAEs [3, 10]: 36
subjects who experienced TEAEs [3, 10]: 20
tolerability ([3]; single doses 12.5 and 25 mg, pediatric and adult subjects): well tolerated
mean CL/F higher in all pediatric subjects compared with adult subjects ([4]; groups 1 and 2 vs adults): up to 37%
Tmax ([4]; human, plasma, po): 2 to 4 h
correlation between dose-normalized AUC0-inf and creatinine clearance ([4]; pediatric and adult subjects): no correlations were observed
mean AUC0-inf lower than in adults [4, 11]: 54%
mean Cmax lower than in adults [4, 11]: 58%
mean AUC0-inf lower than in adults receiving the 25-mg dose ([4]; pediatric subjects, 25-mg dose): 23%
mean Cmax lower than in adults receiving the 25-mg dose ([4]; pediatric subjects, 25-mg dose): 26%
